Assay results published in ChEMBL document CHEMBL5360598, “An ECD and NMR/DP4+ Computational Pipeline for Structure Revision and Elucidation of Diphenazine-Based Natural Products” (J Nat Prod, 2023).
pEC50: −log10 of the molar value. Calls of active or inactive are those of the source. The rule behind the calls is not given here.

Experiments:
[1] = biological target: Eukaryotic translation initiation factor 4E/Eukaryotic translation initiation factor 4E-binding protein 1 (Homo sapiens, UniProt P06730+Q13541); assay: Inhibition of eIF4E-4E-BP1 (unknown origin) interaction by cat-ELCCA assay; format: protein assay; details: for pEC50: read-out: EC50
[2] = biological target: Eukaryotic translation initiation factor 4E (Homo sapiens) (UniProt P06730); assay: Binding affinity to eIF4E in HEK293 cell lysate assessed as thermal stability at 25 uM at 42 to 53 degreeC by CETSA; format: subcellular
[3] = test system: MIA PaCa-2; assay: Antiproliferative activity against human MIA PaCa-2 cells by Cell Titer Glo assay; format: functional, cell-based

Chain of Eukaryotic translation initiation factor 4E/Eukaryotic translation initiation factor 4E-binding protein 1 (P06730 whole entry): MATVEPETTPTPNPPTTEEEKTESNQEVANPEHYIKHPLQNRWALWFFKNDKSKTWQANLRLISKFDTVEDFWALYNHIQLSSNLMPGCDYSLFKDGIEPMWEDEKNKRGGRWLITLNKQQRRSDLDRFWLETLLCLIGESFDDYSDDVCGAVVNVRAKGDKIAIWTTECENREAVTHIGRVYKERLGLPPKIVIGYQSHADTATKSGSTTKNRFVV
Chain of Eukaryotic translation initiation factor 4E/Eukaryotic translation initiation factor 4E-binding protein 1 (Q13541 whole entry): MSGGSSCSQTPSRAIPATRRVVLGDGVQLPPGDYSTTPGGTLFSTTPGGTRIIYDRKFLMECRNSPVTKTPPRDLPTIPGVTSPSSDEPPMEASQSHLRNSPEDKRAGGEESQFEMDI
Chain of Eukaryotic translation initiation factor 4E (Homo sapiens) (P06730 whole entry): as the sequence (P06730 whole entry) above

Structure (SMILES) | pEC50 [1] | also measured
O=C(O)c1ccc(O)c2nc3c4c(ccc3nc12)[C@@H]1Cc2nc3cccc(O)c3nc2[C@H](O4)[C@H]1O | 3.51 | 
O=C(O)c1cc2c(c3nc4c(O)cccc4nc13)[C@@H]1Cc3nc4cccc(O)c4nc3[C@@H](O)[C@@H]1O2 [IZUMIPHENAZINE A] | 3.62 | 
O=C(O)c1cc2c(c3nc4c(O)cccc4nc13)O[C@@H]1[C@H](O)c3nc4cccc(O)c4nc3C[C@H]21 | 5.11 | Activity [2]: Active; Activity [3]: inactive
O=C(O)c1cc2c(c3nc4c(O)cccc4nc13)[C@@H]1Cc3nc4cccc(O)c4nc3[C@H](O2)[C@H]1O | 3.59 | 
O=C(O)c1ccc(=O)c2nc3c4c(ccc3[nH]c1-2)[C@@H]1Cc2nc3cccc(O)c3nc2[C@H](O4)[C@H]1O | 4.17 | 
Oc1cccc2nc3c(O)cccc3nc12 |  | EC50 [1]: Not Active
O=C(O)c1cc2c(c3nc4c(O)cccc4nc13)[C@@H]1Cc3nc4cccc(O)c4nc3[C@@](O)(C1)O2 |  | EC50 [1]: Not Active
